The values that follow come from patent US9006221B2, “Method of modulating ship activity” (H. Lee Moffitt Cancer Center and Reserach Institute, Inc., priority 2008, dated 2015).

Structures are written as SMILES.

For data set [1] the following is noted: mouse, in vivo.
Data set [2] has as its target T1, PTEN (Homo sapiens, UniProt P60484).
T1 construct: purchased
Nature of the data set: Malachite Green phosphate release assay, PTEN. Format: biochemical. The method, then: The absorbance measurements shown correspond to liberated PO4 generated by recombinant PTEN (1.44 μg) when incubated with its substrate, PI (3,4,5)P3, as detected by a Malachite Green reporter.
(A) Purified, recombinant SHIP1 has significant activity as determined by the reduction in mean polarization units (mPu) in an FP assay designed for 5′-inositol phosphatases (Echelon Biosciences, Salt Lake City, Utah.). Note that no significant reduction in mP is obtained when the enzyme buffer without SHIP1 is added to the FP assay (Buffer) or when purified SHIP1 is assayed in the absence of its PI(3,4,5)P3 substrate (SHIP1 only).
Assay of SHIP1 enzymatic activity: A fluorescent polarization (FP) assay that detects the 5′-inositol phosphatase activity of SHIP1 was developed based on a previously established protocol [Drees B E, et al., Comb Chem High Throughput Screen (2003) 6(4):321-330] and was obtained from Echelon Biosciences (Salt Lake City, USA). Modifications of the protocol included the application of SHIP1 in the assay and an increase in the concentration of MgCl2 to […] to maximize the activity of SHIP1 in this assay. […]

The target of data set [3] is T2, SHIP2 (Homo sapiens, UniProt O15357).
T2 sequence (O15357 1-1258): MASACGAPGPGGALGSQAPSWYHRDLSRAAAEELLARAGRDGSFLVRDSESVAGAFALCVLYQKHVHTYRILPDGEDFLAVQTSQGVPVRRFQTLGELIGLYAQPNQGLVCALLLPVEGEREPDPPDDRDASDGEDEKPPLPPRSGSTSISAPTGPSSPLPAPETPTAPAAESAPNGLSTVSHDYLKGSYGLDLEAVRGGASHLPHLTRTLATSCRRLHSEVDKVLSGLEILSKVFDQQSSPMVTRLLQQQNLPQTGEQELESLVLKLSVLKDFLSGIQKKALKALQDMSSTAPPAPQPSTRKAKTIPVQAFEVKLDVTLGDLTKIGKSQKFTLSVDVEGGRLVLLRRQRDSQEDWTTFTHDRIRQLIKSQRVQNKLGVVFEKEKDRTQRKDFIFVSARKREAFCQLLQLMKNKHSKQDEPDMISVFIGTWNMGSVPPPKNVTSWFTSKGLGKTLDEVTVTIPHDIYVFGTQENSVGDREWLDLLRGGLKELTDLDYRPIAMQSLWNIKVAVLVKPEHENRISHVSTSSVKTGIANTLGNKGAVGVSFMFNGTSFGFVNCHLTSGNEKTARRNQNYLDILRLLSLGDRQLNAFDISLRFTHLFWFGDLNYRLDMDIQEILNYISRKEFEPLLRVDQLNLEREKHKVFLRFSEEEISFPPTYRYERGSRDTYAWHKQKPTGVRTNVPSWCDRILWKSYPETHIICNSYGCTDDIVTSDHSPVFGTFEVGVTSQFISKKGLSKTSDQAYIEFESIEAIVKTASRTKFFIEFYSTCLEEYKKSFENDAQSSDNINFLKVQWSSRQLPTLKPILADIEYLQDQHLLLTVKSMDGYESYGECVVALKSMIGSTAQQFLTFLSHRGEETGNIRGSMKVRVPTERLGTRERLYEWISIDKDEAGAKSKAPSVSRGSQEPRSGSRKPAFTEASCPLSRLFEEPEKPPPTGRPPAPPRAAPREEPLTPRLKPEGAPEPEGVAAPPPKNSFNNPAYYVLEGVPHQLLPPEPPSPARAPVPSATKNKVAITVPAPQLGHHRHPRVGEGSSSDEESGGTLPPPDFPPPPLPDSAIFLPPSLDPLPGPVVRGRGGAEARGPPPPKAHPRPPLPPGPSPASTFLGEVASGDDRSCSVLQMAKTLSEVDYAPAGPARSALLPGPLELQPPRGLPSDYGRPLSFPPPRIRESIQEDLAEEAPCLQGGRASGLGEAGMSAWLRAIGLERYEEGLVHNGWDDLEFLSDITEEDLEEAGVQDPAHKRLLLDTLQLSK
Nature of the data set: FP assay of SHIP2 enzymatic activity. Format: biochemical. The source says:
No Compound—FP assay conducted with purified SHIP1 or SHIP2 as indicated in the absence of inhibitor. No Enzyme—FP assay conducted in SHIP buffer and fluorescent substrate in the absence of enzyme.
Thus far, none of the inhibitors have been identified as selective for SHIP1 over SHIP2. The majority of SHIP inhibitors identified show selectivity for 5′ inositol phosphatases and thus might be used to target SHIP1 or SHIP2 activity.
Assay of SHIP1 enzymatic activity: A fluorescent polarization (FP) assay that detects the 5′-inositol phosphatase activity of SHIP1 was developed based on a previously established protocol [Drees B E, et al., Comb Chem High Throughput Screen (2003) 6(4):321-330] and was obtained from Echelon Biosciences (Salt Lake City, USA). Modifications of the protocol included the application of SHIP1 in the assay and an increase in the concentration of MgCl2 to […] to maximize the activity of SHIP1 in this assay. Each enzymatic reaction was performed in a 96 well working plate and added in the following order and concentration: Recombinant SHIP1 (0.1 μg) in PBS+20 mM MgCl2, 100 μM of each individual compound from the NCI Diversity Set and then PI(3,4,5)P3 substrate diluted 1:10 in H2O. The enzymatic reaction was incubated for 30 min at room temperature. The detector, reaction mixture and probe were then combined according to the SHIP2 protocol. […]

T1 sequence (P60484 whole entry, species assumed): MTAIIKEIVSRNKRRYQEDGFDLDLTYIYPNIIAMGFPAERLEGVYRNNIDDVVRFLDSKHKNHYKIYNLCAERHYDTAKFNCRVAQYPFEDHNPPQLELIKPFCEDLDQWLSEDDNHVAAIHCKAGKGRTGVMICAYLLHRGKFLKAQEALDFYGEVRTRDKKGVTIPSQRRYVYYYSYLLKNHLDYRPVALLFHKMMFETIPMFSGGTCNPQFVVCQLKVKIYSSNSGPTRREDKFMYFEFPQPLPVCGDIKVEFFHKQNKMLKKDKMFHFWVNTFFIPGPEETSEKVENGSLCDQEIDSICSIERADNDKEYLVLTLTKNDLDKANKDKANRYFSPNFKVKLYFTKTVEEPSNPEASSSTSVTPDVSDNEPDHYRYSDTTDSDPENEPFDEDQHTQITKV

As to `CC(C)CCC[C@@H](C)[C@H]1CC[C@H]2[C@@H]3CC[C@H]4C[C@H](N)CC[C@]4(C)[C@H]3CC[C@]12C` [NSC23922, (3R,5S,8R,9S,10S,13R,14S,17R)-10,13-dimethyl-17-[(2R)-6-methylheptan-2-yl]-2,3,4,5,6,7,8,9,11,12,14,15,16,17-tetradecahydro-1H-cyclopenta[a]phenanthren-3-amine], the “pulmonary myeloid infiltration and lung consolidation” value in data set [1] is “absence of the pulmonary myeloid infiltration and lung consolidation”. Moreover, the “inhibition of PTEN activity” value in data set [2] (at 1 mM, Malachite Green assay) is “fails to inhibit”. Also, in data set [3], the “inhibition of SHIP2 enzymatic activity” value is “inhibit both SHIP1 and SHIP2 enzymatic activity”.
For `OC(c1cc(-c2ccccc2)nc2c1ccc1ccccc12)C1CCCCN1` (centres unmarked) [NSC13480, (2-phenylbenzo[h]quinolin-4-yl)-piperidin-2-ylmethanol], the “inhibition of PTEN” value in data set [2] (at 100 μM, Malachite Green reporter, recombinant PTEN 1.44 μg) is listed as “no significant inhibition”. Also, in data set [3], the “inhibition of SHIP2 enzymatic activity” value was “inhibit both SHIP1 and SHIP2 enzymatic activity”.
